Drawing on patent publication US8921555B2, “Substituted-1,3,8-triazaspiro[4.5]decane-2,4-diones” (Merck Sharp & Dohme Corp., priority 2009, dated 2014), this text covers IC50 for 29 compounds.

Like-named read-outs stand apart in the source and are kept apart here. Bounds are passed on as bounds.

The test has as its target T1, HIF-PHD2 (Homo sapiens, UniProt Q9GZT9).
T1 construct: FLAG-tagged full length PHD2 expressed in and purified from baculovirus-infected Sf9 cells; FLAG; made in house; host or cells: baculovirus-infected Sf9 cells
The test is described as follows: Assay for HIF-PHD2 Catalytic Activity (PHD2 Binding Activity). The format is biochemical.

[1] abbreviates: read-out: PHD2 Binding Activity IC50.

T1 sequence (Q9GZT9 whole entry): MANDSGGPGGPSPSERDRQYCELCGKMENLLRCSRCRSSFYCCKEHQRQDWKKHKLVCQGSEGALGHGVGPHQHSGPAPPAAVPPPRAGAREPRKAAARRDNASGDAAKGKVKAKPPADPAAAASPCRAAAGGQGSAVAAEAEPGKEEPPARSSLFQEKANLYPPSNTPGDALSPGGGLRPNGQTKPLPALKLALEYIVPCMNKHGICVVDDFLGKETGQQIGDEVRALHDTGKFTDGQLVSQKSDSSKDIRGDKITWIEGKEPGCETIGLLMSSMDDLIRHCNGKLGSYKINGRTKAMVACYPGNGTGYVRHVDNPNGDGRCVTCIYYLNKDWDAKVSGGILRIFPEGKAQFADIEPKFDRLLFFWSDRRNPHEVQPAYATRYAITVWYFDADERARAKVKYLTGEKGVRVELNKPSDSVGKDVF

For `COc1ccnc(N2C(=O)N(c3ccc(-c4nnn[nH]4)cc3)C(=O)C23CCN(Cc2ncccc2C)CC3)n1` [Compound 1-15, 1-(4-methoxypyrimidin-2-yl)-8-[(3-methylpyridin-2-yl)methyl]-3-[4-(1H-tetrazol-5-yl)phenyl]-1,3,8-triazaspiro[4.5]decane-2,4-dione], the IC50 (usually the concentration that inhibits the measured activity by half) lay within 20 to 50 nM.

`Cc1cccnc1CN1CCC2(CC1)C(=O)N(c1ccc(Br)cc1)C(=O)N2c1cc(-c2ccc(C(=O)O)cc2)ncn1` [Compound 7-15, 4-(6-{3-(4-bromophenyl)-8-[(3-methylpyridin-2-yl)methyl]-2,4-dioxo-1,3,8-triazaspiro[4.5]dec-1-yl}pyrimidin-4-yl)benzoic acid] had an IC50 of 0.5 to 20 nM.

In the case of `COc1ccnc(N2C(=O)N(c3ccccc3)C(=O)C23CCN(Cc2ncccc2C)CC3)n1` [Compound 1-30, 1-(4-methoxypyrimidin-2-yl)-8-[(3-methylpyridin-2-yl)methyl]-3-phenyl-1,3,8-triazaspiro[4.5]decane-2,4-dione], the IC50 was > 50 nM.

Consider `Cc1cncc(N2C(=O)N(c3ccc(-c4ccc(C(=O)O)cc4)cc3)C(=O)C23CCN(Cc2ncccc2C)CC3)n1` [Compound 7-7, 4′-{1-(6-methylpyrazin-2-yl)-8-[(3-methylpyridin-2-yl)methyl]-2,4-dioxo-1,3,8-triazaspiro[4.5]dec-3-yl}biphenyl-4-carboxylic acid], for which the IC50 lay in the range of 0.5 to 20 nM.

Regarding `COc1ccnc(N2C(=O)N(c3ccc(-c4ccccc4)cc3)C(=O)C23CCN(Cc2ncccc2C)CC3)n1` [Compound 1-29, 3-biphenyl-4-yl-1-(4-methoxypyrimidin-2-yl)-8-[(3-methylpyridin-2-yl)methyl]-1,3,8-triazaspiro[4.5]decane-2,4-dione], the IC50 was 0.5 to 20 nM.

Turning to `O=C(O)c1[nH]cnc1CN1CCC2(CC1)NC(=O)N(c1ccc(-c3ccccc3)cc1)C2=O` [Compound 1-51, 4-[(3-biphenyl-4-yl-2,4-dioxo-1,3,8-triazaspiro[4.5]dec-8-yl)methyl]-1-H-imidazole-5-carboxylic acid], the 50% inhibitory concentration (IC50) under setting [1] fell in the range of 0.5 to 20 nM.

Compound `CCCCOC(=O)c1[nH]cnc1CN1CCC2(CC1)C(=O)N(c1ccc(-c3ccccc3)cc1)C(=O)N2c1cc(OC)ncn1` [Compound 1-48, Butyl 4-{[3-biphenyl-4-yl-1-(6-methoxypyrimidin-4-yl)-2,4-dioxo-1,3,8-triazaspiro[4.5]dec-8-yl]methyl}-1-H-imidazole-5-carboxylate] gave an IC50 of 0.5 to 20 nM.

`CCCCOC(=O)c1[nH]cnc1CN1CCC2(CC1)C(=O)N(c1ccc(-c3ccccc3)cc1)C(=O)N2c1nccc(OC)n1` [Compound 1-47, Butyl 4-{[3-biphenyl-4-yl-1-(4-methoxypyrimidin-2-yl)-2,4-dioxo-1,3,8-triazaspiro[4.5]dec-8-yl]methyl}-1-H-imidazole-5-carboxylate] gave an IC50 of 20 to 50 nM.

For the compound `Cc1cccnc1CN1CCC2(CC1)C(=O)N(c1ccccc1)C(=O)N2c1nccc(O)n1` [Compound 1-3, 1-(4-hydroxypyrimidin-2-yl)-8-[(3-methylpyridin-2-yl)methyl]-3-phenyl-1,3,8-triazaspiro[4.5]decane-2,4-dione], the IC50 is > 50 nM.

Regarding `Cc1[nH]cnc1CN1CCC2(CC1)C(=O)N(c1ccc(-c3ccccc3)cc1)C(=O)N2c1cc(O)ncn1` [Compound 1-53, 3-biphenyl-4-yl-1-(6-hydroxypyrimidin-4-yl)-8-[(5-methyl-1-H-imidazol-4-yl)methyl]-1,3,8-triazaspiro[4.5]decane-2,4-dione], the IC50 was in the range of 0.5 to 20 nM.

Consider `Cc1cccnc1CN1CCC2(CC1)C(=O)N(c1ccc(-c3ccccc3)cc1)C(=O)N2c1cccc(C(=O)O)n1` [Compound 1-14, 6-{3-biphenyl-4-yl-8-[(3-methylpyridin-2-yl)methyl]-2,4-dioxo-1,3,8-triazaspiro[4.5]dec-1-yl}pyridine-2-carboxylic acid], for which the IC50 lay in the range of 0.5 to 20 nM.

For the compound `CCOC(=O)C1CN(Cc2ncccc2C)CCC12C(=O)N(c1ccc(-c3ccccc3)cc1)C(=O)N2c1cc(O)ncn1` (single isomer, unassigned) [Compound 3-10, Ethyl 3-biphenyl-4-yl-1-(6-hydroxypyrimidin-4-yl)-8-[(3-methylpyridin-2-yl)methyl]-2,4-dioxo-1,3,8-triazaspiro[4.5]decane-6-carboxylate], the IC50 was in the range of 0.5 to 20 nM.

Regarding `Cc1cccnc1CN1CCC2(CC1)C(=O)N(c1ccc(-c3ccccc3)cc1)C(=O)N2c1ccncn1` [Compound 1-68, 3-biphenyl-4-yl-8-[(3-methylpyridin-2-yl)methyl]-1-pyrimidin-4-yl-1,3,8-triazaspiro[4.5]decane-2,4-dione], the IC50 was 0.5 to 20 nM.

The compound `COc1cccc(N2C(=O)N(c3ccc(-c4ccccc4)cc3)C(=O)C23CCN(Cc2ncccc2C)CC3)n1` [Compound 1-11, 3-biphenyl-4-yl-1-(6-methoxypyridin-2-yl)-8-[(3-methylpyridin-2-yl)methyl]-1,3,8-triazaspiro[4.5]decane-2,4-dione] had an IC50 of 0.5 to 20 nM.

In the case of `Cc1cccnc1CN1CCC2(CC1)C(=O)N(c1ccc(-c3ccccc3)cc1)C(=O)N2C(=O)N[C@H](C)C(=O)O` [Compound 5-4, (2R)-2-[({3-biphenyl-4-yl-8-[(3-methylpyridin-2-yl)methyl]-2,4-dioxo-1,3,8-triazaspiro[4.5]dec-1-yl}carbonyl)amino]propanoic acid], the 50% inhibitory concentration (IC50) under setting [1] was in the range of 0.5 to 20 nM.

On to `Cc1cccnc1CN1CCC2(CC1)C(=O)N(c1ccc(-c3ccccc3)cc1)C(=O)N2C(=O)N[C@@H](C)C(=O)O` [Compound 5-5, (2S)-2-[({3-biphenyl-4-yl-8-[(3-methylpyridin-2-yl)methyl]-2,4-dioxo-1,3,8-triazaspiro[4.5]dec-1-yl}carbonyl)amino]propanoic acid], for which the IC50 under setting [1] lay in the range of 0.5 to 20 nM.

Turning to `Cc1cccnc1CN1CCC2(CC1)C(=O)N(c1ccc(-c3cccc(C(=O)O)c3)cc1)C(=O)N2c1ncccn1` [Compound 1-66, 4′-{8-[(3-methylpyridin-2-yl)methyl]-2,4-dioxo-1-pyrimidin-2-yl-1,3,8-triazaspiro[4.5]dec-3-yl}biphenyl-3-carboxylic acid], the IC50 lay in the range of 0.5 to 20 nM.

As for `Cc1cccnc1CN1CCC2(C(=O)N(c3ccc(-c4ccccc4)cc3)C(=O)N2c2cc(O)ncn2)C(C(=O)O)C1` (centres unmarked) [Compound 3-7, 3-biphenyl-4-yl-1-(6-hydroxypyrimidin-4-yl)-8-[(3-methylpyridin-2-yl)methyl]-2,4-dioxo-1,3,8-triazaspiro[4.5]decane-6-carboxylic acid], the IC50 lay within 0.5 to 20 nM.

The compound `COc1cc(N2C(=O)N(c3ccc(-c4ccc(C(=O)O)cc4F)nc3)C(=O)C23CCN(Cc2ncccc2C)CC3)ncn1` [Compound 12-1, 3-fluoro-4-(5-{1-(6-methoxypyrimidine-4-yl)-8-[(3-methylpyridin-2-yl)methyl]-2,4-dioxo-1,3,8-triazaspiro[4.5]dec-3-yl}pyridin-2-yl)-3-benzoic acid] gave an IC50 of 0.5 to 20 nM.

Take `COc1ccnc(N2C(=O)N(c3ccc(-c4ccccc4)cc3)C(=O)C23CCN(Cc2ncccc2Br)CC3)n1` [Compound 1-28, 3-biphenyl-4-yl-8-[(3-bromopyridin-2-yl)methyl]-1-(4-methoxypyrimidin-2-yl)-1,3,8-triazaspiro[4.5]decane-2,4-dione]: the IC50 is 20 to 50 nM.

With `COc1ccnc(N2C(=O)N(c3ccc(-c4ccccc4)cc3)C(=O)C23CCN(Cc2nccn2CC(=O)OC(C)(C)C)CC3)n1` [Compound 1-19, tert-butyl (2-{[3-biphenyl-4-yl-1-(4-methoxypyrimidin-2-yl)-2,4-dioxo-1,3,8-triazaspiro[4,5]dec-8-yl]methyl}-1H-imidazol-1-yl)acetate], the IC50 was > 50 nM.

Compound `COc1ccnc(N2C(=O)N(c3ccc(-c4ccc(C(=O)O)cc4C)nc3)C(=O)C23CCN(Cc2ncccc2C)CC3)n1` [Compound 11-2, 4-(5-{1-(4-methoxypyrimidin-2-yl)-8-[(3-methylpyridin-2-yl)methyl]-2,4-dioxo-1,3,8-triazaspiro[4.5]dec-3-yl}-pyridin-2-yl)-3-methylbenzoic acid] registered an IC50 of 0.5 to 20 nM.

Take `COc1ccnc(N2C(=O)N(c3ccc(-c4ccccc4)cc3)C(=O)C23CCN(CC(=O)O)CC3)n1` [Compound 2-6, [3-biphenyl-4-yl-1-(4-methoxypyrimidin-2-yl)-2,4-dioxo-1,3,8-triazaspiro[4.5]dec-8-yl]acetic acid]: the half-maximal inhibitory concentration (IC50) was in the range of 0.5 to 20 nM.

The compound `COC(=O)c1ccc(-c2ccc(N3C(=O)N(c4ncccn4)C4(CCN(Cc5ncccc5C)CC4)C3=O)cc2)cc1` [Compound 1-61, Methyl 4′-{8-[(3-methylpyridin-2-yl)methyl]-2,4-dioxo-1-pyrimidin-2-yl-1,3,8-triazaspiro[4.5]dec-3-yl}biphenyl-4-carboxylate] gave a half-inhibitory concentration (IC50) of 0.5 to 20 nM.

Regarding `Cc1cccnc1CN1CCC2(CC1)C(=O)N(c1ccc(-c3ccccc3)cc1)C(=O)N2c1ccccc1` [Compound 1-4, 3-biphenyl-4-yl-8-[(3-methylpyridin-2-yl)methyl]-1-phenyl-1,3,8-triazaspiro[4.5]decane-2,4-dione], the 50% inhibitory concentration (IC50) fell in the range of 0.5 to 20 nM.

Take `O=C(O)CN1CCC2(CC1)C(=O)N(c1ccc(-c3ccccc3)cc1)C(=O)N2c1ncccn1` [Compound 2-5, (3-biphenyl-4-yl-2,4-dioxo-1-pyrimidin-2-yl-1,3,8-triazaspiro[4.5]dec-8-yl)acetic acid]: the IC50 lay in the range of 0.5 to 20 nM.

In turn, `Cc1cccnc1CN1CCC2(CC1)C(=O)N(c1ccc(-c3ccccc3)cc1)C(=O)N2c1cccnc1` [Compound 1-18, 3-biphenyl-4-yl-8-[(3-methylpyridin-2-yl)methyl]-1-pyridin-3-yl-1,3,8-triazaspiro[4.5]decane-2,4-dione] displayed an IC50 of 0.5 to 20 nM.

The compound `Cc1cccnc1CN1CCC2(CC1)C(=O)N(c1ccc(-c3ccccc3)cc1)C(=O)N2c1ccnc(O)c1` [Compound 1-58, 3-biphenyl-4-yl-1-(2-hydroxypyridin-4-yl)-8-[(3-methylpyridin-2-yl)methyl]-1,3,8-triazaspiro[4.5]decane-2,4-dione] yielded an IC50 of 0.5 to 20 nM.

`O=C(O)CN1CCC2(CC1)C(=O)N(c1ccc(-c3ccccc3)cc1)C(=O)N2c1cncnc1` [Compound 2-4, (3-biphenyl-4-yl-2,4-dioxo-1-pyrimidin-5-yl-1,3,8-triazaspiro[4.5]dec-8-yl)acetic acid] returned an IC50 of 20 to 50 nM.
